# Data: patent US6703237B2, “Methods and formulations for mediating adeno-associated virus (AAV) attachment and infection and methods for purifying AAV” (priority 1998, dated 2004)
# B1: heparitinase: GAG lyase purchased from Sigma; cleaves linkages found in heparan sulfate (protein, UniProt Q59289 25-659, looked up)
# Heparin-sulfate lyase: QSSSITRKDFDHINLEYSGLEKVNKAVAAGNYDDAAKALLAYYREKSKAREPDFSNAEKPADIRQPIDKVTREMADKALVHQFQPHKGYGYFDYGKDINWQMWPVKDNEVRWQLHRVKWWQAMALVYHATGDEKYAREWVYQYSDWARKNPLGLSQDNDKFVWRPLEVSDRVQSLPPTFSLFVNSPAFTPAFLMEFLNSYHQQADYLSTHYAEQGNHRLFEAQRNLFAGVSFPEFKDSPRWRQTGISVLNTEIKKQVYADGMQFELSPIYHVAAIDIFLKAYGSAKRVNLEKEFPQSYVQTVENMIMALISISLPDYNTPMFGDSWITDKNFRMAQFASWARVFPANQAIKYFATDGKQGKAPNFLSKALSNAGFYTFRSGWDKNATVMVLKASPPGEFHAQPDNGTFELFIKGRNFTPDAGVFVYSGDEAIMKLRNWYRQTRIHSTLTLDNQNMVITKARQNKWETGNNLDVLTYTNPSYPNLDHQRSVLFINKKYFLVIDRAIGEATGNLGVHWQLKEDSNPVFDKTKNRVYTTYRDGNNLMIQSLNADRTSLNEEEGKVSYVYNKELKRPAFVFEKPKKNAGTQNFVSIVYPYDGQKAPEISIRENKGNDFEKGKLNLTLTINGKQQLVLVP
# B2: heparinase: GAG lyase purchased from Sigma; cleaves linkages found in heparan sulfate (protein, UniProt Q05819 22-384, looked up)
# Heparin lyase I: QQKKSGNIPYRVNVQADSAKQKAIIDNKWVAVGINKPYALQYDDKLRFNGKPSYRFELKAEDNSLEGYAAGETKGRTELSYSYATTNDFKKFPPSVYQNAQKLKTVYHYGKGICEQGSSRSYTFSVYIPSSFPDNATTIFAQWHGAPSRTLVATPEGEIKTLSIEEFLALYDRMIFKKNIAHDKVEKKDKDGKITYVAGKPNGWKVEQGGYPTLAFGFSKGYFYIKANSDRQWLTDKADRNNANPENSEVMKPYSSEYKTSTIAYKMPFAQFPKDCWITFDVAIDWTKYGKEANTILKPGKLDVMMTYTKNKKPQKAHIVNQQEILIGRNDDDGYYFKFGIYRVGNSTVPVTYNLSGYSETAR
# B3: chondroitinase AC: GAG lyase from Seikagagku; cleaves only chondroitin sulfate type A and C (protein, UniProt Q59288 23-700, looked up)
# Chondroitinase-AC: QQTGTAELIMKRVMLDLKKPLRNMDKVAEKNLNTLQPDGSWKDVPYKDDAMTNWLPNNHLLQLETIIQAYIEKDSHYYGDDKVFDQISKAFKYWYDSDPKSRNWWHNEIATPQALGEMLILMRYGKKPLDEALVHKLTERMKRGEPEKKTGANKTDIALHYFYRALLTSDEALLSFAVKELFYPVQFVHYEEGLQYDYSYLQHGPQLQISSYGAVFITGVLKLANYVRDTPYALSTEKLAIFSKYYRDSYLKAIRGSYMDFNVEGRGVSRPDILNKKAEKKRLLVAKMIDLKHTEEWADAIARTDSTVAAGYKIEPYHHQFWNGDYVQHLRPAYSFNVRMVSKRTRRSESGNKENLLGRYLSDGATNIQLRGPEYYNIMPVWEWDKIPGITSRDYLTDRPLTKLWGEQGSNDFAGGVSDGVYGASAYALDYDSLQAKKAWFFFDKEIVCLGAGINSNAPENITTTLNQSWLNGPVISTAGKTGRGKITTFKAQGQFWLLHDAIGYYFPEGANLSLSTQSQKGNWFHINNSHSKDEVSGDVFKLWINHGARPENAQYAYIVLPGINKPEEIKKYNGTAPKVLANTNQLQAVYHQQLDMVQAIFYTAGKLSVAGIEIETDKPCAVLIKHINGKQVIWAADPLQKEKTAVLSIRDLKTGKTNRVKIDFPQQEFAGATVELK
# Experiments:
# [1] = tested on: rAAV-LacZ; test: Inhibition of rAAV-LacZ transduction of HeLa cells by soluble GAGs; type: cell-based, AAV-2
# Procedure: FIGS. 1A and 1B illustrate the inhibition of AAV infection by various glycosaminoglycans. In the data shown in FIG. 1A, rAAV was incubated with the indicated concentrations of heparin (solid squares), chondroitin sulfate B (dermatan sulfate) (open circles), chondroitin sulfate A (open diamonds) or chondroitin sulfate C (open triangles) for 1 hour at 37° C. prior to a 1-hour adsorption period of the virus/GAG mixture to HeLa cells for infection. β-galactosidase activity was assayed 44 hours post-infection using a Galacto-Light Plus kit (Tropix Inc.), and measured in a luminometer. Each point denotes the average % decrease in Relative Light Units (RLU) per ug of protein relative to the maximum RLU/μg protein obtained in experiments without GAG. In the data shown in FIG. 1B, HeLa cells were preincubated with increasing concentrations of heparin at 37° C. for 1 hour. After thorough washing, cells were infected with rAAV as described above. Data points represent the average % maximum RLU/ug protein obtained without heparin preincubation.
# rAAV-LacZ at an MOI of 2 was incubated in DMEM-H media in the presence or absence of indicated soluble GAGs at 1.0, 5.0, 10, 20, 30 μg/ml for 1 h at 37° C. For infection, rAAV-LacZ or the virus/GAG mixture was incubated with 2×10^5 HeLa cells for 1 h at 37° C. in a 5% CO2 chamber. […]
# [2] = tested on: 3H-wt AAV-2; test: Inhibition of 3H-wt AAV-2 binding to HeLa cells by soluble GAGs; conditions: 90 min at 4° C.
# Procedure: FIG. 2 illustrates that soluble heparin inhibits binding of AAV to the cell surface. After pre-incubation of 3H-wt AAV-2 with increasing concentrations of the indicated GAGs or the GAG analogue dextran sulfate, labeled virus was adsorbed to HeLa cells for 90 minutes at 4° C. Unbound virus was removed by three washes with ice cold binding buffer and radioactivity was quantitated as described in methods. Data is represented as the average % inhibition relative to the CPM bound in the absence of soluble GAG.
# (§1) For direct binding assays, ^3H-labeled wtAAV-2 was incubated with cells either attached to plates or in suspension, as indicated, at a ratio of 4×10^11 particles/3×10^5 cells for 90 minutes at 4° C. in HBSB. Cells were then washed 3 times in ice cold HBSB to remove unbound virus, and were solubilized in 0.3 N NaOH. After neutralization with glacial acetic acid, cell-associated radioactivity was quantitated in a scintillation counter. For inhibition studies, and after enzymatic treatments, ^3H-AAV was bound to adherent HeLa cells. Binding to wild type CHO and CHO cell mutants was done with suspended cells. […] Non-specific binding was determined in the presence of 100-fold excess unlabeled wt AAV (previously dialyzed in HBS, 10% glycerol). Binding of Cy3-labeled virus was done on wild type CHO and pgsA-745 cells grown on coverslips. After fixation in 4% paraformaldehyde for 20 minutes at room temperature, cells were mounted on slides and bound Cy3 labeled virus was detected by confocal microscopy. […]
# To further examine the observed specificity and to determine whether GAGs were inhibiting binding of the AAV virions to the cell surface, ^3H-wt AAV was incubated with GAGs (heparin, dermatan sulfate, chondroitin sulfate A, chondroitin sulfate C, dextran sulfate) at various concentrations. After incubation with cells, the mixture was washed and cells were solubilized to quantify bound virus. […]
# [3] = tested on: cell surface glycosaminoglycans of HeLa cells; test: 3H-AAV binding to HeLa cells after GAG lyase digestion of cell surface GAGs; conditions: maximum concentration of enzyme tested
# Procedure: (§2) FIGS. 3A and 3B illustrate the effect of enzymatic digestion of cell surface glycosaminoglycans on AAV binding and infection. In the data shown in FIG. 3A, HeLa cells were treated with the indicated concentrations of the following GAG lyases: heparitinase (solid squares), heparinase I (open diamonds), chondroitinase ABC (open circles), or chondroitinase AC (open triangles), as described in Example 13, below. After thorough washing, the ability of AAV to bind the cell surface was assessed as described in Example 12, below. Data points represent the average % reduction in AAV binding relative to AAV binding obtained without enzymatic treatment. In the data shown in FIG. 3B, HeLa cells were treated with heparitinase or heparinase I as described herein. After thorough washing, rAAV was incubated with cells for a I hour adsorption period at 37° C. Cells were harvested 44 hours post-infection and assayed for β-galactosidase activity. Results are shown as the average % reduction in AAV transduction relative to transduction observed in the absence of enzymatic treatment. Data points represent the mean and standard deviation of experiments performed in triplicate.
# as §1
# GAG lyases were reconstituted in phosphate buffered saline (PBS). […] Prior to use, each enzyme was tested for activity by a standard method used to determine specific activity of GAG lyases, except that enzyme activity was monitored under the conditions used for digestion, PBS pH 7.4 at 37° C. […]
# Subconfluent HeLa cells were treated with various concentrations of each specific enzyme and assessed for ^3H-AAV binding.
# [4] = tested on: rAAV-LacZ; test: rAAV-lacZ transduction of HeLa cells with low concentrations of heparin; type: cell-based, AAV-2; conditions: heparin 0.001 and 0.004 μg/mL, 48 h after infection
# Procedure: HeLa cells were infected with rAAV-lacZ virus in the presence or absence of heparin, at the indicated concentrations, for one hour at 37° C. […] Results are reported as the mean and standard deviation of one experiment performed in triplicate.
# HeLa cells were infected with rAAV-lacZ virus in the presence or absence of heparin, at concentrations of 0 μg/mL, 0.001 μg/mL, and 0.004 μg/mL, for one hour at 37° C. […] The results of this experiment are shown in FIG. 6 as the mean and standard deviation of one experiment performed in triplicate.
# [5] = tested on: cell surface glycosaminoglycans of HeLa cells; test: rAAV-LacZ transduction of HeLa cells after GAG lyase digestion; type: cell-based; conditions: for reduction of rAAV transduction compared to untreated control cells: HeLa cells treated with various concentrations of enzyme
# Procedure: as §2
# GAG lyases were reconstituted in phosphate buffered saline (PBS). For enzymatic digestion of cell surface GAGs, 3×10^4 HeLa cells were washed and incubated with the indicated concentrations of GAG lyases in PBS containing 0.1%BSA, 0.2% gelatin and 0.1% glucose (digestion buffer) for 1 hour at 37° C. in a 5% CO2 chamber. Cells were then washed four times with digestion buffer and subjected to rAAV infection as described above. Prior to use, each enzyme was tested for activity by a standard method used to determine specific activity of GAG lyases, except that enzyme activity was monitored under the conditions used for digestion, PBS pH 7.4 at 37° C. (Linhardt, (1994) Analysis of glycosaminoglycans with polysaccharide lyases, p. 17.13.17-17.13.32. in K. Janssen (ed.), Current Protocols in Molecular Biology, vol. 3. John Wiley & Sons, Inc., New York). Cells remained attached to the plate after all enzymatic treatments. […]
molecule,measurement,setting,value
chondroitin sulfate B,inhibition of rAAV transduction (β-galactosidase activity),"[1]; 30 μg/ml GAG, HeLa cells, 44 h post-infection",71%
same,inhibition of AAV binding,[2]; 30 μg/ml,51%
chondroitinase ABC,reduction of 3H-AAV binding to the cell surface after enzymatic treatment,[3],did not result in any reduction
dextran sulfate,inhibition of AAV binding,[2]; 30 μg/ml,36%
heparin,inhibition of rAAV transduction after preincubation of cells,"[1]; HeLa cells preincubated with heparin up to 20 μg/ml, washed before infection",less than 20%
same,"effect on rAAV transduction (β-galactosidase, RLU/μg protein)",[4],enhance rAAV transduction
same,inhibition of AAV binding,[2]; 5 μg/ml,90%
B1,reduction of 3H-AAV binding to the cell surface after enzymatic treatment,[3],73%
same,reduction of AAV infection,"[5]; 0.425 mIU/ml enzyme, HeLa cells",up to 72%
same,reduction of rAAV transduction compared to untreated control cells,[5],80%
B2,reduction of 3H-AAV binding to the cell surface after enzymatic treatment,[3],66%
same,reduction of rAAV transduction compared to untreated control cells,[5],80%
B3,reduction of 3H-AAV binding to the cell surface after enzymatic treatment,[3],did not result in any reduction
